Measured values as given in patent publication US20100003217A1, “Compounds and Pharmaceutical Compositions for the Treatment of Viral Infections” (priority 2008, published 2010).
Where “and” joins values, the source holds several entries; their conditions need not be identical. Equal entries are not always repeated.

System: human primary hepatocytes
Test: Metabolic disposition of [^14C]-Compound 1 and [^14C]-2′-C-methyl guanosine in human primary hepatocytes (incubation medium, cellular extracts, nucleotide levels)
Type: in vitro ADME
Procedure: Primary hepatocytes: Freshly isolated cells from animal and human liver were obtained in suspension on ice. Cells were pelleted by centrifugation at 70-75×g (rat) or 95-90×g (monkey and human) and resuspended at 0.8 million cells per mL of platting medium (William's E supplemented with 5% FBS, 0.5% penicillin-streptomycin, 1% L-glutamine, 4 μg/mL insulin and 1 μM dexamethasone). Multi-well collagen I-coated plates (rat tail collagen type I; 12- or 6-well) were then seeded by addition of 1 mL (12-well; 0.8 million cells/well) or 2 mL (6-well; 1.6 million cells/well) of cell suspension. The plates were gently shaken to evenly distribute the cells and placed in an incubator at 37° C. for approximately 4 to 6 hours to allow cells to attach. Once cells were attached, the platting medium was removed and replaced with hepatocyte culture medium (William's E supplemented with penicillin-streptomycin, 1% L-glutamine, 1% insulin-transferrin-selenium and 0.1 μM dexamethasone). Cells were left overnight in an incubator at 37° C. to acclimatize to culture and the medium.
Hepatocyte incubations with radiolabeled Compound 1 and 2′-C-methyl guanosine, both labeled in the C-8 position of the guanine moiety, were conducted at a final volume of 2.0 mL hepatocyte culture medium/well ([…]). Culture medium from overnight incubation of cells was removed and replaced with fresh medium, pre-warmed to 37° C., containing 1 or 10 μM [^14C]-Compound 1 ([…]) or [^14C]-2′-C-methyl guanosine (127 DPM/μmol) from a stock solution in DMSO (final DMSO concentration was 0.1%) or 50% ethanol (final ethanol concentration was 0.2%). After 1, 4, 8 and 24 hours, 0.5-1.0 mL of incubation medium was removed and stored at −20° C. until analysis (described below). The remaining medium was discarded and cell monolayers were carefully washed two times with ice-cold PBS. Following the last wash, all PBS was carefully removed and 1.0 mL of extraction solution (ice-cold 70% methanol) added. Cells were scrapped off and suspended in the extraction solution, transferred to 2 mL polypropylene microfuge tubes and intracellular contents extracted overnight at −20° C.
Preliminary identification of putative metabolites was conducted by comparing the retention time of observed metabolites in incubation medium and cellular extracts with retention times obtained with chemically synthesized standards using the chromatography conditions described below. Further identification of 2′-C-methyl guanosine nucleotides (mono-, di- and triphosphate) was carried out by incubating cellular extract samples with alkaline phosphatase (10 units for 60 min at 37° C.) and comparing the HPLC retention times of the resulting nucleosides with that of authentic 2′-C-methyl guanosine.
Cellular extracts were prepared by centrifugation at 16,000 RCF using an Eppendorf microcentrifuge (Eppendorf, Model 5415D) for 10 min to remove cellular debris. An aliquot of 5-10 μL of the supernatant was added to 5 mL of EcoLite™ (MP, Irvine, Calif.) liquid scintillation cocktail and radioactivity measured by liquid scintillation counting (LSC) using a Beckman Coulter LS6500 multipurpose liquid scintillation counter (Beckman Instruments, Fullerton, Calif.). The remaining sample was then dried using a Labconco refrigerated centrivap concentrator (Labconco, Kansas City, Mo.). Dry extracts were reconstituted in 120 μL of HPLC-grade water and centrifuged at 16,000 RCF using an Eppendorf microcentrifuge for 10 min. Prior to HPLC analysis (described below), radioactivity of the concentrated extracts was measured by LSC using 5 μL aliquots. Extraction recovery was then determined by comparing total radioactivity in extracts before and after drying. The remaining extract was then analyzed by HPLC with online radioactivity detection using a Flow Scintillation Analyzer Radiomatic™ 515TR. Radioactivity in the separated components was quantified by integrating the peaks using Flo-One™ Software (Perkin Elmer Life Sciences). […]

[1] = human hepatocytes (Hu775), 1 μM [^14C]-Compound 1, 1 h
[2] = human hepatocytes (Hu775), 1 μM [^14C]-Compound 1, 8 h
[3] = human hepatocytes (Hu775), 1 μM [^14C]-Compound 1, 24 h
[4] = human hepatocytes Hu775, 1 μM [^14C]-2′-C-methyl guanosine, 1 h
[5] = human hepatocytes Hu775, 1 μM [^14C]-2′-C-methyl guanosine, 8 h
[6] = human hepatocytes Hu775, 1 μM [^14C]-2′-C-methyl guanosine, 24 h

Q: For `C[C@@]1(O)[C@H](O)[C@@H](COP(=O)(O)O)O[C@H]1n1cnc2c(=O)[nH]c(N)nc21` [Compound 5, [(2R)-2-methyl-β-D-ribofuranosyl]guanine 5′-monophosphate], which “metabolites observed in cellular extracts (% of total radioactivity)” value [1] is on record?
A: 5.45%

Q: And the “metabolites observed in medium (% of total radioactivity)” value [1]?
A: BLD

Q: And the “2′-C-methyl guanosine nucleotide levels in cellular extracts” value (shortened to “2′-C-methyl guanosine nucleotide levels”) [2]?
A: 2.10 pmol/million cells

Q: And the “metabolites observed in cellular extracts (% of total radioactivity)” value [2]?
A: 3.60%

Q: What about the “metabolites observed in medium (% of total radioactivity)” value [2] of the same molecule?
A: 10.4%

Q: What about the “2′-C-methyl guanosine nucleotide levels” value [3] of the same molecule?
A: 5.80 pmol/million cells

Q: What about the “metabolites observed in cellular extracts (% of total radioactivity)” value [3] of the same molecule?
A: 6.41%

Q: And the “metabolites observed in medium (% of total radioactivity)” value [3]?
A: 8% and 8.29%

Q: What about the “metabolites observed in medium (% of total radioactivity)” value (human hepatocytes (lots Hu759, Hu775), 10 μM [^14C]-Compound 1, 0 h) of the same molecule?
A: BLD

Q: What about the “metabolites observed in medium (% of total radioactivity)” value (human hepatocytes (lots Hu759, Hu775), 10 μM [^14C]-Compound 1, 1 h) of the same molecule?
A: 4.4% and 0.5%

Q: What about the “metabolites observed in medium (% of total radioactivity)” value (human hepatocytes (lots Hu759, Hu775), 10 μM [^14C]-Compound 1, 4 h) of the same molecule?
A: 3.9% and 4.5%

Q: And the “metabolites observed in medium (% of total radioactivity)” value (human hepatocytes (lots Hu759, Hu775), 10 μM [^14C]-Compound 1, 8 h)?
A: 5.1% and 7.2%

Q: What about the “metabolites observed in medium (% of total radioactivity)” value (human hepatocytes (lots Hu759, Hu775), 10 μM [^14C]-Compound 1, 24 h) of the same molecule?
A: 4.7% and 7.1%

Q: What about the “2′-C-methyl guanosine nucleotide levels” value (human hepatocytes Hu759, 10 μM [^14C]-2′-C-methyl guanosine, 0 h) of the same molecule?
A: 0 pmol/million cells

Q: What about the “2′-C-methyl guanosine nucleotide levels” value (human hepatocytes Hu759, 10 μM [^14C]-2′-C-methyl guanosine, 1 h) of the same molecule?
A: BLD^a (BLD = below limit of detection (0.02 pmol/million cells))

Q: And the “2′-C-methyl guanosine nucleotide levels” value (human hepatocytes Hu759, 10 μM [^14C]-2′-C-methyl guanosine, 4 h)?
A: BLD (BLD = below limit of detection (0.02 pmol/million cells))

Q: And the “2′-C-methyl guanosine nucleotide levels” value (human hepatocytes Hu759, 10 μM [^14C]-2′-C-methyl guanosine, 8 h)?
A: 9.00 pmol/million cells

Q: And the “2′-C-methyl guanosine nucleotide levels” value (human hepatocytes Hu759, 10 μM [^14C]-2′-C-methyl guanosine, 24 h)?
A: 23.0 pmol/million cells

Q: And the “2′-C-methyl guanosine nucleotide levels” value (human hepatocytes Hu759, 10 μM [^14C]-Compound 1, 0 h)?
A: 0 pmol/million cells

Q: What about the “2′-C-methyl guanosine nucleotide levels” value (human hepatocytes Hu759, 10 μM [^14C]-Compound 1, 1 h) of the same molecule?
A: 4.00 pmol/million cells

Q: And the “2′-C-methyl guanosine nucleotide levels” value (human hepatocytes Hu759, 10 μM [^14C]-Compound 1, 4 h)?
A: 15.0 pmol/million cells

Q: What about the “2′-C-methyl guanosine nucleotide levels” value (human hepatocytes Hu759, 10 μM [^14C]-Compound 1, 8 h) of the same molecule?
A: 25.0 pmol/million cells

Q: And the “2′-C-methyl guanosine nucleotide levels” value (human hepatocytes Hu759, 10 μM [^14C]-Compound 1, 24 h)?
A: 28.0 pmol/million cells

Q: And the “2′-C-methyl guanosine nucleotide levels” value (human hepatocytes Hu775, 1 μM [^14C]-2′-C-methyl guanosine, 0 h)?
A: BLD (BLD = below limit of detection (0.02 pmol/million cells))

Q: What about the “2′-C-methyl guanosine nucleotide levels” value [4] of the same molecule?
A: BLD (BLD = below limit of detection (0.02 pmol/million cells))

Q: And the “Major metabolites observed in cellular extracts (% of total radioactivity)” value [4]?
A: BLD^a (BLD = below limit of detection (30 DPM))

Q: What about the “2′-C-methyl guanosine nucleotide levels” value [5] of the same molecule?
A: BLD (BLD = below limit of detection (0.02 pmol/million cells))

Q: And the “Major metabolites observed in cellular extracts (% of total radioactivity)” value [5]?
A: BLD (BLD = below limit of detection (30 DPM))

Q: What about the “2′-C-methyl guanosine nucleotide levels” value [6] of the same molecule?
A: 1.50 pmol/million cells

Q: And the “Major metabolites observed in cellular extracts (% of total radioactivity)” value [6]?
A: 3.39 % of total radioactivity

Q: What about the “2′-C-methyl guanosine nucleotide levels” value (human hepatocytes Hu775, 10 μM [^14C]-2′-C-methyl guanosine, 0 h) of the same molecule?
A: 0 pmol/million cells

Q: And the “2′-C-methyl guanosine nucleotide levels” value (human hepatocytes Hu775, 10 μM [^14C]-2′-C-methyl guanosine, 1 h)?
A: 2.80 pmol/million cells

Q: And the “2′-C-methyl guanosine nucleotide levels” value (human hepatocytes Hu775, 10 μM [^14C]-2′-C-methyl guanosine, 4 h)?
A: 4.00 pmol/million cells

Q: And the “2′-C-methyl guanosine nucleotide levels” value (human hepatocytes Hu775, 10 μM [^14C]-2′-C-methyl guanosine, 8 h)?
A: 4.90 pmol/million cells

Q: What about the “2′-C-methyl guanosine nucleotide levels” value (human hepatocytes Hu775, 10 μM [^14C]-2′-C-methyl guanosine, 24 h) of the same molecule?
A: 16.0 pmol/million cells

Q: What about the “2′-C-methyl guanosine nucleotide levels” value (human hepatocytes Hu775, 10 μM [^14C]-Compound 1, 0 h) of the same molecule?
A: 0 pmol/million cells

Q: What about the “2′-C-methyl guanosine nucleotide levels” value (human hepatocytes Hu775, 10 μM [^14C]-Compound 1, 1 h) of the same molecule?
A: 10.3 pmol/million cells

Q: What about the “2′-C-methyl guanosine nucleotide levels” value (human hepatocytes Hu775, 10 μM [^14C]-Compound 1, 4 h) of the same molecule?
A: 17.1 pmol/million cells

Q: What about the “2′-C-methyl guanosine nucleotide levels” value (human hepatocytes Hu775, 10 μM [^14C]-Compound 1, 8 h) of the same molecule?
A: 21.9 pmol/million cells

Q: What about the “2′-C-methyl guanosine nucleotide levels” value (human hepatocytes Hu775, 10 μM [^14C]-Compound 1, 24 h) of the same molecule?
A: 121 pmol/million cells
